The values below come from patent US11389463B2, “Antiviral nucleoside reverse transcriptase inhibitor” (priority 2017, dated 2022).

The conditions of series [1]: relative to TDF; cited from earlier work.
The test system of another series is immune cells. Particulars: relative to TDF; cited from earlier work.
The next series relates to HIV-1. Kind of series: Detection of in vitro anti-HIV activity (HIV-1 infected MT-4 cells, CellTiter-glo). In kind it is cell-based. Particulars: Human immunodeficiency virus 1, MT4, 120 h, 5 days, read-out: HIV activity and cytotoxicity data EC50. In general terms: In ATP-based viability assays light output follows the ATP content of the culture.
Series [2] is described as follows: Cytotoxicity assay in uninfected MT-4 cells (CellTiter-glo). It counts as cell-based. Particulars: human, read-out: HIV activity and cytotoxicity data CC50. As to the method:
The data was analyzed by GraphPad Prism software, and the curve was fitted and EC50 and CC50 values were calculated. EC50 refers to the effective concentration that inhibits 50% virus production, 50% virus infectivity, or 50% virus-induced cellular effects. CC50 refers to the inhibitory concentration that reduces the cell growth or viability of uninfected cells by 50%.
Viral infection and cell treatment: HIV-1 and MT-4 cells were co-incubated at 37° C., in an incubator with 5% CO2 for 1 h. The infected cells were then seeded in a cell culture plate at a certain density. The final concentration of DMSO in the cell culture medium was 0.5%. The cells were incubated at 37° C., in an incubator with 5% CO2 for 5 days. The cells tested in the cytotoxicity assay were uninfected MT-4 cells, and other test conditions were with the same as that of the antiviral activity assay.
The activity assay of the cell: the cell viability was tested by using cell viability assay reagent CellTiter-glo (Promega). The raw data was used for calculating the anti-HIV-1 activity and cytotoxicity of the Compounds.

Another series relates to HBV. Kind of series: Detection of anti-HBV activity in vitro (HepG2.2.15 cells, HBV DNA by quantitative PCR). In kind it is cell-based. As to conditions: Hepatitis B virus, HBV DNA in supernatant on the eighth day, read-out: HBV activity and cytotoxicity data EC50. As to the method:
Anti-cell viability assay: in vitro anti-hepatitis b virus activity of Example compounds was tested in HepG2.2.15 cells with TDF as a positive control compound. Cells were seeded into a 96-well plate on the first day; the compounds were added to treat the cells on the next day; and a new culture medium containing the compounds was replaced on the fifth day. On the eighth day, the supernatant was collected for DNA extraction. The content of HBV DNA was detected by quantitative PCR. Both test compound and TDF were subjected to a 3-fold serial dilution to get 8 concentration points in duplicate. The final concentration of DMSO in the culture medium was 0.5%. The formula for calculating the percentage of inhibition is as follows: Inhibition rate=(1−copy number of HBV in sample/copy number of HBV in DMSO control group)×100%

A short description of series [3]: Cytotoxicity experiments of the anti-HBV test (Cell-titer Blue). It counts as cell-based. As to conditions: human, HepG2.2.15 cells, six days after treatment. As to the method: Cytotoxicity experiments: the arrangement of compounds on plate and compound-treatment process were the same as that of […] activity. Six days after the cells were treated by compounds, the cell activity was tested. Cell-titer Blue reagent was added to each well, the cells were incubated at 37° C. for 3 hours, and fluorescence values were read (560Ex/590 Em). The data were analyzed and the relative cell viability was calculated:
The percentage of cell viability was calculated using the following formula: % cell viability=(fluorescence reading of sample−fluorescence reading of culture control)/(fluorescence reading of DMSO control−fluorescence reading of culture control)×100.
Finally, the CC50 value of the compounds were calculated by the GraphPad Prism software.

A short description of series [4]: Liver microsomal metabolism experiment, human liver microsomes. In kind it is in vitro ADME. Particulars: pH 7.4, 1 μM compound, 0.5 mg/mL protein, NADPH. As to the method: (§1) Microsomal experiments: human liver microsomes: 0.5 mg/mL, Xenotech; rat liver microsomes: 0.5 mg/mL, Xenotech; coenzyme (NADPH/NADH): 1 mM, Sigma Life Science; magnesium chloride: 5 mM, 100 mM phosphate buffer (pH 7.4).
(§2) Preparation of stock solution: powder of Example compounds were precisely weighed and dissolved in DMSO to 5 mM.
(§3) Preparation of phosphate buffer (100 mm, pH 7.4): 0.5M pre-formulated potassium dihydrogen phosphate (150 ml) and 0.5M potassium hydrogen phosphate (700 ml) were mixed well. The pH of the mixture was then adjusted to 7.4 with 0.5M potassium hydrogen phosphate solution. The resulting solution was 5-fold diluted with ultrapure water before use, and magnesium chloride was added to the solution, affording a phosphate buffer (100 mm), containing potassium phosphate (100 mM), magnesium chloride (3.3 mM), pH 7.4. […]
(§4) Data analysis: The peak area of the corresponding compounds and internal standard was detected by LC-MS/MS system, and the peak area ratio of compounds to internal standard was calculated. The slope was measured by plotting the natural log of the percentage of the remaining amount of the compounds versus time, and t1/2 and CLint were calculated according to the following formula, where V/M is equal to 1/protein concentration.
In general terms: Microsomes from liver hold many membrane-bound enzymes, among them those of drug oxidation.

Series [5] in a line: Liver microsomal metabolism experiment, rat liver microsomes. It counts as in vitro ADME. Particulars: SD, pH 7.4, 1 μM compound, 0.5 mg/mL protein, NADPH. As to the method:
as §1, §2, §3, §4

Each structure is given as a SMILES string. Structures can show the parent of a compound that is named as a salt.

Procedure for HIV-1: Compound treatment: the test compounds and the reference compounds were 2-fold diluted with DMSO and added to the cell culture plate. The test compounds and the reference compounds were tested at 8 concentrations in duplicate.

`CC(C)OC(=O)[C@H](C)N[P@](=O)(CO[C@H](C)Cn1cnc2c(N)ncnc21)Oc1ccccc1` [TAF, Tenofovir Alafenamide Fumarate]: in series [1], the “concentration of TFV in plasma metabolized by TAF, lower than that of TDF” value is reported as 90%. The “concentration of TFV in immune cells metabolized by TAF, times higher than that of TDF” value with immune cells is reported as 4 times.

One may read the EC50 as the concentration at which the effect is half-maximal. A word on the CC50: it is the concentration giving 50% cytotoxicity. As for `CCCCCCCCCCCCCCCCS(=S)CCO[P@](=O)(CO[C@H](C)Cn1cnc2c(N)ncnc21)OCOC(=O)OC(C)C` (single isomer, unassigned) [Compound T-3-2], the figures for the EC50 in the series on HIV-1 and in the series with HBV were at most 0.005 µM and 0.1 to 0.4 µM, respectively. Moreover, in series [2], the CC50 at 5 days was 0.1 to 0.5 µM. Further, the CC50 at 6 days in series [3] was above 50 µM. In addition, the microsomal CLint at 1 μM in series [4] (read-out: Human liver microsome experiment CLint) came out at 71 µL/min/mg; in series [5] (read-out: Rat liver microsome experiment CLint), 54.4 µL/min/mg. The half-life at 1 μM is 19.5 min in series [4] (read-out: Human liver microsome experiment t1/2(min)) and 25.5 min in series [5] (read-out: Rat liver microsome experiment t1/2(min)).

Regarding `CCCCCCCCCCCCCCCCS(=S)CCO[P@@](=O)(CO[C@H](C)Cn1cnc2c(N)ncnc21)OCOC(=O)OC(C)C` (single isomer, unassigned) [Compound T-3-1], the half-maximal effective concentration (EC50) in the series on HIV-1 is at most 0.005 µM; with HBV, 0.1 to 0.4 µM. Also, the 50% cytotoxic concentration (CC50) at 5 days in series [2] lay in the range of 0.1 to 0.5 µM. Moreover, the CC50 at 6 days in series [3] was above 50 µM.
